In patent EP0236230A1, “Aqueous suspensions containing at least one compound chosen from 6,7-dihydrobenzoquinolizine carboxylic acids, and their use in the treatment of plants” (RIKER LABORATORIES, INC., priority 1986, dated 1987):
Converted amounts (≈) assume the structure as drawn.

Tests used:
XANTHOMONAS CYNARAE = experiment: Minimal inhibitory concentration (CMI) at varying pH; type: cell-based
From the text: (§1) Une autre conséquence inattendue de la valeur du pH est l'influence sur l'activité antibactérienne elle-même. Selon l'invention, c'est en milieu pH acide que l'on obtient la meilleure activité antibactérienne.
(§2) A titre d'exemple, on donne ci-après les concentrations minimales inhibitrices (CMI) obtenues vis-à-vis de quelques bactéries phytopathogènes en faisant varier le pH.

XANTHOMONAS PRUNI = experiment: as above; type: cell-based
From the text: as §1, §2

PSEUDOMONAS VIRIDIFLAVA = experiment: as above; type: cell-based
From the text: as §1, §2

ERWINIA AMYLOVORA = experiment: as above; type: cell-based
From the text: as §1, §2

PSEUDOMONAS SYRINGAE = experiment: as above; type: cell-based
From the text: as §1, §2

physchem = settings: water
From the text: Une deuxième solution consiste à diminuer la solubilité du produit.

solubility (physchem; pH 5, water): ~100 µg/mL (≈ 383 µM) | solubility (physchem; pH 7, water): 300 to 400 µg/mL (≈ 1150 to 1530 µM)
SMILES: CC1CCc2cc(F)cc3c(=O)c(C(=O)O)cn1c23 (centres unmarked) [Fluméquine, acide [1H-5H] dihydro-6,7 fluoro-9 méthyl-5 oxo-1 benzo [i,j] quinolizine carboxylique-2]
concentrations minimales inhibitrices (CMI) (XANTHOMONAS CYNARAE; pH 5): 0,5 | concentrations minimales inhibitrices (CMI) (XANTHOMONAS CYNARAE; pH 6,5): 1 | concentrations minimales inhibitrices (CMI) (XANTHOMONAS CYNARAE; pH 7,4): 2 | concentrations minimales inhibitrices (CMI) (XANTHOMONAS PRUNI; pH 5): 0,25 | concentrations minimales inhibitrices (CMI) (XANTHOMONAS PRUNI; pH 6,5): 1 | concentrations minimales inhibitrices (CMI) (XANTHOMONAS PRUNI; pH 7,4): 2 | concentrations minimales inhibitrices (CMI) (PSEUDOMONAS VIRIDIFLAVA; pH 5): 1 | concentrations minimales inhibitrices (CMI) (PSEUDOMONAS VIRIDIFLAVA; pH 6,5): 2 | concentrations minimales inhibitrices (CMI) (PSEUDOMONAS VIRIDIFLAVA; pH 7,4): 4 | concentrations minimales inhibitrices (CMI) (ERWINIA AMYLOVORA; pH 5): 0,1 | concentrations minimales inhibitrices (CMI) (ERWINIA AMYLOVORA; pH 6,5): 0,5 | concentrations minimales inhibitrices (CMI) (ERWINIA AMYLOVORA; pH 7,4): 1 | concentrations minimales inhibitrices (CMI) (PSEUDOMONAS SYRINGAE; pH 5): 0,5 | concentrations minimales inhibitrices (CMI) (PSEUDOMONAS SYRINGAE; pH 6,5): 2 | concentrations minimales inhibitrices (CMI) (PSEUDOMONAS SYRINGAE; pH 7,4): 4
